Measurements reported in patent publication US8278263B2, “Method of regulating mammalian target-of-rapamycin activity by interaction between phospholipase D and raptor” (Postech Academy-Industry Foundation, priority 2006, dated 2012).

Tests used:
PLD2 = target: T1, PLD2 (Homo sapiens, UniProt O14939); assay: In vivo PLD assay (PBt formation) in response to nutrient levels; type: cell-based; settings: PLD2wt transfected cells; leucine-free vs leucine-added media; 0.4% 1-butanol
T1 construct: showing a schematic view of PLD2 N-terminal deleted fragments versus whole PLD2; expressed in transfected cells
Description: In vivo PLD activity was assayed by measuring the formation of phosphatidyl-butanol as described in “Lee, J. S., Kim, J. H., Jang, I. H., Kim, H. S., Han, J. M., Kazlauskas, A., Yagaisawa, H., Suh, P. G., Ryu, S. H. J. Cell Sci. 118 (2005) 4405,” which is hereby incorporated by reference. In brief, cells were loaded with [^3H]myristic acid (2 μCi/ml) for 8 hrs and then washed twice with DMEM. Labeled cells were incubated with 0.4% butanol for 10 min to measure basal PLD activity. Total lipids were extracted with 1.2 ml of methanol:1 M NaCl:chloroform (1:1:1 by volume) and then separated by thin-layer chromatography on silica gel plates. The amount of [^3H]phosphatidyl-butanol formed was expressed as a percentage of total [^3H]lipid to account for cell labeling efficiency differences.

[1] = tested on: interaction between PLD2 and mTOR; assay: Co-IP with anti-mTOR antibody of PLD2 and mTOR complex; type: cell-based, human; monkey
Description: (§1) After harvesting COS7 cells, total extracts were prepared by brief sonication in ice-cold lysis buffer (40 mM HEPES pH7.5, 120 mM NaCl, 1 mM EDTA, 10 mM pyrophosphate, 10 mM glycerophosphate, 50 mM NaF, 1.5 mM Na3VO4, 0.5% CHAPS, 1 mM PMSF, protease inhibitor cocktails). Clarified extracts were mixed with 2 μg of the respective antibodies. Then protein A-Sepharose beads were added to isolate the antibody complex. After four washings with lysis buffer, the final immunoprecipitates were washed once with wash buffer (50 mM HEPES pH7.5, 150 mM NaCl), and then subjected to SDS-PAGE using Hyperfilm (Amersham Pharmacia Biotech), nitrocellulose membranes (Watmann), Power supply (Amersham Pharmacia Biotech), Electrophoretic Transfer unit (Hoefer Scientific Instruments), and ECL™ (Amersham Pharmacia Biotech).

[2] = tested on: binding between PLD2 and raptor; assay: Co-IP of HA-raptor/PLD2 in HEK293 cells after leucine treatment; type: cell-based, human; settings: HA-raptorwt/PLD2wt transfected HEK293 cells; leucine treatment after leucine deprivation
Description: as §1
Either HA-raptor^wt/PLD2^wt was transfected into HEK293 cells, and the cells were subjected to leucine deprivation. Co-IP after leucine treatment was followed by Western blot analysis. Importantly, the interaction between Rheb and PLD2 was also regulated by nutrient levels such that this interaction was stabilized under high nutrient conditions and weakened under low nutrient conditions, which allowed a nutrient-dependent mTOR complex composed of mTOR, raptor, PLD2, and Rheb to be identified.

mTOR-raptor interaction = assay: Co-IP analysis of the mTOR-raptor interaction; type: cell-based, monkey; settings: COS7 cells
S6K1 = tested on: S6K1
Description: Until now, the function of PLD2 in nutrient signaling has not been proposed. To this end, the importance of PLD2 in nutrient signaling was tested. […] PLD2^wt was transfected and allowed to express for 24 hr.

S6K1 phosphorylation = assay: Exogenous PA rescue of mTOR signaling in PLD knocked-down cells (SDS-PAGE/western blot); type: cell-based, human; monkey
Description: Next, another experiment was conducted to test whether exogenous PA can rescue mTOR signal abrogation in PLD2-knocked-down cells. HEK293 and COS7 cells were transfected with the indicated siRNAs using lipofectamine. After 36 hrs, cells were deprived of serum for 24 hrs. 100 μM of C-6 PA solubilized in DW was then treated for 30 min. Resulting lysates were subject to SDS-PAGE.
The inventor reasoned that if the role of PLD2 in mTOR activation is solely that of PA generation, then the exogenous addition of PA should completely rescue mTOR signaling despite PLD2 expression.

[3] = tested on: phosphorylations of S6K1 and 4EBP1; assay: Phosphorylation of S6K1 and 4EBP1 after isozyme-specific PLD siRNA knockdown (western blot); type: cell-based, human; monkey
Description: Pairs of 21-nucleotide sense and antisense RNA oligomers were synthesized and annealed by Dharmacon Research, Inc. (Lafayette, Colo.). The oligonucleotides used for PLD2 were: sense, 5′-AAGAGGUGGCUGGUGGUGAAG-3′ (SEQ ID NO: 9) and antisense, 5′-CUUCACCACCAGCCACCUCUU-3′ (SEQ ID NO: 10), which correspond to human PLD2 coding nucleotides 703-723. The oligonucleotides used for PLD1 were: sense, 5′-AAGGUGGGACGACAAUGAGCA-3′ (SEQ ID NO: 11), and antisense, 5′-UGCUCAUUGUCGUCCCACCUU-3′ (SEQ ID NO: 12), which correspond to human PLD1a coding nucleotides 1455-1475. All siRNA sequences were subjected to BLAST in the NCBI database and complete matches were only found for PLD2 sequences. Luciferase GL2 duplex was purchased from Dharmacon Research, Inc. and was used as a negative control. For add-back experiment for PLD2 silencing, three residues of human PLD2 cDNA (nucleotides 703-723 of PLD2; […]; SEQ ID NO: 13) are substituted to […] for addback mutants of PLD2^wt (Kim, J. H., Kim, J. H., Ohba, M., Suh, P. G., Ryu, S. H. Mol. Cell. Biol. 25 (2005) 3194, which is hereby incorporated by reference). This mutation is silencing mutations. This gene is subcloned into mammalian expression vector pcDNA3.1 (Invitrogen) and digested with restriction enzymes KpnI and XbaI. These mutations are confirmed through nucleotide sequence analysis. […]

phosphorylation of S6K1 = assay: Mitogen-dependent phosphorylation of S6K1 in siRNA-transfected COS7 cells; type: cell-based, monkey; settings: siRNA knockdown, 20% BCS
Description: The indicated siRNAs were transfected into COS7 cells, and 36 hrs later, cells were deprived of serum for 24 hrs. 20% of BCS was then treated and the resulting lysates were subjected to SDS-PAGE.

T1 sequence (O14939 whole entry R172C/T577I, the tested form may be a part): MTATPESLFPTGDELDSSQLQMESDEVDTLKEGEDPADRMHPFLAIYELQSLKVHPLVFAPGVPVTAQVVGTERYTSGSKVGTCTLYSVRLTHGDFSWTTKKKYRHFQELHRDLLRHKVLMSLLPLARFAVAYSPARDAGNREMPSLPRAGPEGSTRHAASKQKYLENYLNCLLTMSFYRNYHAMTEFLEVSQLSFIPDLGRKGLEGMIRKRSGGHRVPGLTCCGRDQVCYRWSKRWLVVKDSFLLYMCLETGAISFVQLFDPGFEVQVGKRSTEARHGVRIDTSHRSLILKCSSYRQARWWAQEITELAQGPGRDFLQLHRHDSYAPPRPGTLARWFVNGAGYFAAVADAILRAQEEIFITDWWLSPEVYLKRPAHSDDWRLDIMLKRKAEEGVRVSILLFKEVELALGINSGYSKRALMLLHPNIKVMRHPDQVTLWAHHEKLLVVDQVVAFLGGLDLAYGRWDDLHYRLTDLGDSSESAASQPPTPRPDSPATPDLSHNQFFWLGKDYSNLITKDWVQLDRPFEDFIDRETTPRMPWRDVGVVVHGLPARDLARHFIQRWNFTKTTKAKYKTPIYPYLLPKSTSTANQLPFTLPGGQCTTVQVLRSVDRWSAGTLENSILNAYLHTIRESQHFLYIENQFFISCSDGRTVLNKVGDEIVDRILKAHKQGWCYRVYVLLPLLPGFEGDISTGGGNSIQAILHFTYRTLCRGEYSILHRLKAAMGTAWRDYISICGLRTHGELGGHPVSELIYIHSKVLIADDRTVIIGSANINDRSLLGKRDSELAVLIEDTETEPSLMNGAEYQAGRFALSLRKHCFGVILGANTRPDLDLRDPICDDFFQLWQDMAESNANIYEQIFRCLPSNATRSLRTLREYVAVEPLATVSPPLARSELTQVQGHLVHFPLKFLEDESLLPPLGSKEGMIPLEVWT

## CC(C)C[C@H](N)C(=O)O [leucine]
PLD2
  PLD2 activity (PBt formation): reversibly regulated
[1]; leucine treatment in leucine-deprived COS7 and HEK293 cells
  interaction between endogenous PLD2 and endogenous mTOR complex: increased
[2]
  binding between PLD2 and raptor: enhanced binding

## 1-butanol
mTOR-raptor interaction
  modulation of the mTOR-raptor interaction: neither reducing PA generation with 1-butanol nor adding PA modulates
S6K1
  stimulatory effect of leucine on S6K1: significantly reduced

## CCCCCC(=O)OC[C@H](COP(=O)(O)O)OC(=O)CCCCC [PA, C-6 phosphatidic acid]
S6K1 phosphorylation; PLD1 silencing, PA treatment
  rescue of silencing effect of PLD1 on mTOR signaling: completely rescued
S6K1 phosphorylation; PLD2-knocked-down HEK293 and COS7 cells, 100 μM C-6 PA, 30 min
  S6K1 phosphorylation triggered by exogenous PA: could not trigger S6K1 phosphorylation
S6K1 phosphorylation; PLD2 silencing, exogenous PA treatment
  rescue of PLD2 effect on mTOR signaling: not rescued
mTOR-raptor interaction
  modulation of the mTOR-raptor interaction: neither reducing PA generation with 1-butanol nor adding PA modulates

## CO[C@H]1C[C@@H]2CC[C@@H](C)[C@@](O)(O2)C(=O)C(=O)N2CCCC[C@H]2C(=O)O[C@H]([C@H](C)C[C@@H]2CC[C@@H](O)[C@H](OC)C2)CC(=O)[C@H](C)/C=C(\C)[C@@H](O)[C@@H](OC)C(=O)[C@H](C)C[C@H](C)/C=C/C=C/C=C/1C [rapamycin]
[1]; mTOR inhibition by rapamycin
  effect on the interaction between PLD2 and mTOR: no effect

## PLD1 siRNA: 21-nt siRNA duplex SEQ ID NO: 11/12, human PLD1a coding nucleotides 1455-1475 (chain 1 AAGGUGGGACGACAAUGAGCA; chain 2 UGCUCAUUGUCGUCCCACCUU; RNA, backbone not given here)
[3]; siRNA silencing
  silencing effect on mTOR signaling: modest
Phosphorylation of S6K1
  mitogen-dependent phosphorylation of S6K1: only a modest effect

## PLD2 siRNA: 21-nt siRNA duplex SEQ ID NO: 9/10, human PLD2 coding nucleotides 703-723 (chain 1 AAGAGGUGGCUGGUGGUGAAG; chain 2 CUUCACCACCAGCCACCUCUU; RNA, backbone not given here)
[3]; siRNA knockdown, HEK293, OVCAR-3 and COS7 cells, serum-deprived 24 hrs, compared with PLD1 knockdown
  phosphorylations of S6K1 and 4EBP1: dramatically reduced
Phosphorylation of S6K1
  mitogen-dependent phosphorylation of S6K1: profoundly reduced
